In paper PMC5691768, “Comparison of the Micellar Incorporation and the Intestinal Cell Uptake of Cholecalciferol, 25-Hydroxycholecalciferol and 1-α-Hydroxycholecalciferol” (Nutrients, 2017):

Columns and labels:
[1] = Incorporation of vitamin D forms in synthetic mixed micelles; assay type: physicochemical; settings: for incorporation efficiency into synthetic mixed micelles: vitamin D form 0–20 µM, linear incorporation curves, n = 3
Experimental: Mixed micelles were formed as previously described. Briefly, monoolein (0.3 mM), oleic acid (0.5 mM), phosphatidylcholine (0.04 mM), lysophosphatidylcholine (0.16 mM), and cholesterol (0.1 mM) dissolved in trichloromethane/methanol (2:1, v/v) and vitamin D forms (concentration range: 0–20 µM) dissolved in ethanol were transferred to a glass tube, and the solvent mixture was carefully evaporated under nitrogen. The dried residue was dispersed in DMEM containing 5 mM sodium taurocholate and was incubated at 37 °C for 30 min. The solution was mixed by sonication in a bath sonicator (Branson 3510 MT, 40 kHz; Branson Ultrasonics, Danbury, CT, USA) for 30 min and then incubated at 37 °C for 1 h. It was then filtrated through cellulose ester membranes (0.22 µm) (Millipore S.A.S., Molsheim, France), and the resulting solution of vitamin D-rich mixed micelles was stored at −20 °C until cell culture experiment or vitamin extraction and HPLC analysis. Concentrations of the different forms in the micellar solutions were checked before each experiment.
(§1) Vitamin D forms were extracted from 500 µL aqueous samples using the method previously described. The internal standard was retinyl acetate for D3 and ergocalciferol for both 25(OH)D3 and 1α(OH)D3. After lipid extraction with hexane, dried residues were dissolved in 200 µL of mobile phase (acetonitrile/methanol/water, 60/38/2, v/v/v). A volume of 160 µL was used for HPLC analysis.
(§2) The HPLC system and method were set up according to previous studies. All molecules were identified by retention time compared with pure standards.

[2] = test system: Caco-2 clone TC-7 cells; test: Apical uptake of micellar vitamin D forms by Caco-2 cell monolayers; assay type: in vitro ADME, human; settings: 1 h incubation, mixed micelles; for uptake rate by Caco-2 cells at high concentration: >5 µM apical, n = 6; for uptake rate by Caco-2 cells at low concentration: <1 µM apical, n = 3
Experimental: (§3) Caco-2 clone TC-7 cells were cultured as previously described. For each experiment, cells were seeded and grown on Millicell® hanging cell culture inserts (Millipore S.A.S., Molsheim, France) for 21 days to obtain confluent and highly differentiated cell monolayers. Twelve hours prior to each experiment, the medium in both the apical and basolateral chambers was replaced with serum-free complete medium. The apical uptake of vitamin D forms incorporated in mixed micelles was determined after a 1 h-incubation period in the presence or absence of inhibitors, as previously described. The % of vitamin D taken up was estimated as the quantity of vitamin D present in the harvested cells divided by the sum of the quantity of vitamin D remaining in the apical chamber and that present in the harvested cells. The efflux of vitamin D forms incorporated in mixed micelles was determined as previously described, with minor changes. Briefly, cells first received the vitamin D-rich micelles at the apical side for 4 h. They were then washed once with PBS and equilibrated in serum-free complete medium for 15 min. Cells were either harvested (control) or they received apical medium containing vitamin D-free mixed micelles for 1 h. The % of vitamin D effluxed back to the apical side was estimated as the quantity of vitamin D present in the apical chamber divided by the quantity of vitamin D present in the harvested cells at t0.
as §1, §2

[3] = biological target: T1, SR-BI (Homo sapiens, UniProt Q8WTV0); test: Uptake by Caco-2 cells with SR-BI inhibition by BLT1; assay type: in vitro ADME; settings: 10 µM BLT1 (SR-BI inhibitor), n = 3
T1 construct: endogenous in cells; host or cells: Caco-2 clone TC-7
T1 sequence (Q8WTV0 1-509 isoform Q8WTV0-2): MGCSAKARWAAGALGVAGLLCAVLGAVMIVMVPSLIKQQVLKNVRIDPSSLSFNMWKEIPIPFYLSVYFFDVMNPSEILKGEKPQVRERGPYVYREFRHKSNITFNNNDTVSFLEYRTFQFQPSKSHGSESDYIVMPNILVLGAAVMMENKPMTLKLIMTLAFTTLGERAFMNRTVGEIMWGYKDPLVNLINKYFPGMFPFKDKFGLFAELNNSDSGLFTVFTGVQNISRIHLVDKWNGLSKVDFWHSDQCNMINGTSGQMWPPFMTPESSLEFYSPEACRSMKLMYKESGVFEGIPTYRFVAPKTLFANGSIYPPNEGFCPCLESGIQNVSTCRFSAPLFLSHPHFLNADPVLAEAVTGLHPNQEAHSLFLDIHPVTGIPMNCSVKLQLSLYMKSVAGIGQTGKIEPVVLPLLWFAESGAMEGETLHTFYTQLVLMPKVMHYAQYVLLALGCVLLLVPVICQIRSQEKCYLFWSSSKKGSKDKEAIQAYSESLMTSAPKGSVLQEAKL
Experimental: as §3

[4] = biological target: T2, NPC1L1 (Homo sapiens, UniProt Q9UHC9); test: Uptake by Caco-2 cells with NPC1L1 inhibition by ezetimibe glucuronide; assay type: in vitro ADME; settings: 10 µM ezetimibe glucuronide (NPC1L1 inhibitor), n = 3
T2 construct: endogenous in cells; host or cells: Caco-2 clone TC-7
T2 sequence (Q9UHC9 22-1359): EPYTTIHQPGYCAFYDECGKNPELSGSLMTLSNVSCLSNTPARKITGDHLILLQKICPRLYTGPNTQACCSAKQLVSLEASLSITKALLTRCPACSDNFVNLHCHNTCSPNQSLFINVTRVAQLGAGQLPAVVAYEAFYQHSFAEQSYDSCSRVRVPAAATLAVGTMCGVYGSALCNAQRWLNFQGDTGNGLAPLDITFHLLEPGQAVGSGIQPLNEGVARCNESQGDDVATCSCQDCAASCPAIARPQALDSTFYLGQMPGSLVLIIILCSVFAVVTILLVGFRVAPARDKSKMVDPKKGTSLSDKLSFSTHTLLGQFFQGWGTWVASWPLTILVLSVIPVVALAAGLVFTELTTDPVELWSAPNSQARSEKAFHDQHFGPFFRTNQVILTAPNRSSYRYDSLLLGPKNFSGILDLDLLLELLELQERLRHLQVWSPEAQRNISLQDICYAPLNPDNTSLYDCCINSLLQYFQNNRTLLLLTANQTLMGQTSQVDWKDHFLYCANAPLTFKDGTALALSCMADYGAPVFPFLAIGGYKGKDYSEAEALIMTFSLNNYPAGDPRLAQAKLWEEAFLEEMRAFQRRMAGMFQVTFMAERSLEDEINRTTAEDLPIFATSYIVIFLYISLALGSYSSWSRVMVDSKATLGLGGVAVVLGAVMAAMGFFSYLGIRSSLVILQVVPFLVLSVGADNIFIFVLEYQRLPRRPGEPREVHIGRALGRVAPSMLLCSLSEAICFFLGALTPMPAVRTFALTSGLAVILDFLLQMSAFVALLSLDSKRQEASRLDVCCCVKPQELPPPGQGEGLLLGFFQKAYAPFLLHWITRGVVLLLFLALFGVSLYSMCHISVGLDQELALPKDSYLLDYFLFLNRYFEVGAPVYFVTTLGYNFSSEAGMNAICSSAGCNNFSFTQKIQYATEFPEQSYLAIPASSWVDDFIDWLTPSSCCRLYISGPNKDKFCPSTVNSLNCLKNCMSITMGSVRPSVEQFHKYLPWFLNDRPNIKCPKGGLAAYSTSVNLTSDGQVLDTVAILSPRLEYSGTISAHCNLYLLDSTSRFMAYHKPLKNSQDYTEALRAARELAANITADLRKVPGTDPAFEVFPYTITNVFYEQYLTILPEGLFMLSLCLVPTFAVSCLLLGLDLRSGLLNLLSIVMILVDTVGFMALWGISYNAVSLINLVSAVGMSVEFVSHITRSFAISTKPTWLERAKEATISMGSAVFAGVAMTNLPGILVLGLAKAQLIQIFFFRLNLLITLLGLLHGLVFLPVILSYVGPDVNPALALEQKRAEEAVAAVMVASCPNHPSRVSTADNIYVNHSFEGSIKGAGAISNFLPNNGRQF
Experimental: as §3

[5] = test system: ASBT; test: Uptake by Caco-2 cells with ASBT inhibition by simvastatin; assay type: in vitro ADME, human; settings: 100 µM simvastatin (ASBT inhibitor), n = 3
Experimental: as §3, with “Cells were either harvested (control) or they received apical medium containing vitamin D-free mixed micelles for 1 h.” left out

[6] = biological target: T3, human ASBT (Homo sapiens, UniProt Q12908); test: Uptake by Griptite cells overexpressing ASBT; assay type: in vitro ADME; settings: Griptite cells transfected with human ASBT vs empty plasmid, 37 °C, 1 h
T3 construct: host or cells: Griptite cells (HEK-293-derived, own knowledge)
T3 sequence (Q12908 1-348): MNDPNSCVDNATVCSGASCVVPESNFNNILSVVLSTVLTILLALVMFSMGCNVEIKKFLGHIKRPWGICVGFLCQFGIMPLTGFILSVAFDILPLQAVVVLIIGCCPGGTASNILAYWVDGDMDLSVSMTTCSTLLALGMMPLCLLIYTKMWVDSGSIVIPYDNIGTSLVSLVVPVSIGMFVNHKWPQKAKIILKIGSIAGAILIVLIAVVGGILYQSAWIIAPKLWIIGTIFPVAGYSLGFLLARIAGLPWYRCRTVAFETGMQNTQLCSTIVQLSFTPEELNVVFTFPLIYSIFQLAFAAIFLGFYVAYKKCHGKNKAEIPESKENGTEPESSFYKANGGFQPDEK
Experimental: Griptite cells were cultured and transfected with 3 µg DNA (either ASBT in pCMV plasmid or empty pCMV control plasmid) similarly to HEK cells, as previously described. Transfection efficiency was verified by western blotting, as previously published. A pre-incubation of the cell monolayers with DMEM supplemented with either DMSO (control) or 100 µM simvastatin was performed during 30 min. Synthetic mixed micelles containing vitamin D forms were diluted in DMEM (1:5) to avoid cytotoxicity [23](data not shown). Apical uptake of vitamin D forms was determined after a 1 h-incubation with a solution of micellar vitamin D containing either DMSO or 100 µM simvastatin (final concentration of DMSO in both conditions: 0.01%). The % of vitamin D taken up was estimated as the quantity of vitamin D present in the harvested cells divided by the sum of the quantity of vitamin D remaining in the apical chamber and that present in the harvested cells.

[7] = parameters: method as in PubChem Website; settings: ref PubChem Website; cited from earlier work

Row | incorporation efficiency into synthetic mixed micelles [1] | fold improvement of solubilization into mixed micelles compared to 25-hydroxycholecalciferol ([1]; vs 25-hydroxycholecalciferol) | fold improvement of solubilization into mixed micelles compared to cholecalciferol ([1]; vs cholecalciferol) | uptake rate by Caco-2 cells at high concentration [2] | uptake rate by Caco-2 cells at low concentration [2] | decrease of uptake in the presence of BLT1 [3] | decrease of uptake in the presence of ezetimibe glucuronide [4] | SMILES | decrease of uptake in the presence of simvastatin [5] | effect of ASBT overexpression on uptake [6] | log P [7]
1 | 62% | 2.9 fold | 1.6 fold | 25% | 18% | not significantly modified | but not | C=C1/C(=C\C=C2/CCC[C@]3(C)[C@@H]([C@H](C)CCCC(C)C)CC[C@@H]23)C[C@@H](O)C[C@@H]1O [1α(OH)D3, 1-α-hydroxycholecalciferol] | ~15% | changed neither | 6.8
2 | 21% |  |  | 34% | 29% | not significantly modified | but not | C=C1CC[C@H](O)C/C1=C/C=C1\CCC[C@]2(C)[C@@H]([C@H](C)CCCC(C)(C)O)CC[C@@H]12 [25(OH)D3, 25-hydroxycholecalciferol] |  |  | 6.2

Row | SMILES | incorporation efficiency into synthetic mixed micelles [1] | fold improvement of solubilization into mixed micelles compared to 25-hydroxycholecalciferol ([1]; vs 25-hydroxycholecalciferol) | fold improvement of solubilization into mixed micelles compared to cholecalciferol ([1]; vs cholecalciferol) | uptake rate by Caco-2 cells at high concentration [2] | uptake rate by Caco-2 cells at low concentration [2] | decrease of uptake in the presence of BLT1 [3] | decrease of uptake in the presence of ezetimibe glucuronide [4] | decrease of uptake in the presence of simvastatin [5] | effect of ASBT overexpression on uptake [6] | log P [7]
3 | C=C1CC[C@H](O)C/C1=C/C=C1\CCC[C@]2(C)[C@@H]([C@H](C)CCCC(C)C)CC[C@@H]12 [D3, cholecalciferol] | 39% |  |  | 18% | 10% | 31% | 30% | about 24% | changed neither | 7.9
